Numbers after ± are expanded uncertainties.
Details: Liquid, Closed cell (Static) method

Structure (SMILES): CO [methanol]
- vapor or sublimation pressure (337.85 K): 101.3 ± 1.1 kPa

Structure (SMILES): C1CCOC1 [tetrahydrofuran]
- vapor or sublimation pressure (338.65 K): 101.3 ± 1.1 kPa
